US20260166128A1, “HUMAN AMYLIN ANALOG, AND DERIVATIVE THEREOF AND USE THEREOF” (priority 2022, published 2026)
Numbered stars: 1 amine (or outer) side, 2 acyl side, 3 side chain; on linkers, the order of the positions; unused ones are H or OH. Bridge positions count the residues as written; N and C are the ends. Square brackets hold non-standard residues; d marks the D form. Side chains are listed from the residue outwards. Peptide text beside a SMILES is read from it. * marks the point of attachment. C20 diacid = O=C(O)CCCCCCCCCCCCCCCCCCC(=O)*; C18 diacid = O=C(O)CCCCCCCCCCCCCCCCC(=O)*; γGlu = O=C(O)[C@H](CCC(=O)[*:2])N[*:1]; Hyp = O=C(O)[C@@H]1C[C@@H](O)CN1; AEEA = NCCOCCOCC(=O)O

Molecular target: T1, human amylin receptor (Homo sapiens, UniProt O60896+P30988)
T1 construct: host or cells: CHO-K1/Ga15/AMY3 cells, further stably transfected with a CRE-luciferase plasmid
T1 sequence (P30988 25-474): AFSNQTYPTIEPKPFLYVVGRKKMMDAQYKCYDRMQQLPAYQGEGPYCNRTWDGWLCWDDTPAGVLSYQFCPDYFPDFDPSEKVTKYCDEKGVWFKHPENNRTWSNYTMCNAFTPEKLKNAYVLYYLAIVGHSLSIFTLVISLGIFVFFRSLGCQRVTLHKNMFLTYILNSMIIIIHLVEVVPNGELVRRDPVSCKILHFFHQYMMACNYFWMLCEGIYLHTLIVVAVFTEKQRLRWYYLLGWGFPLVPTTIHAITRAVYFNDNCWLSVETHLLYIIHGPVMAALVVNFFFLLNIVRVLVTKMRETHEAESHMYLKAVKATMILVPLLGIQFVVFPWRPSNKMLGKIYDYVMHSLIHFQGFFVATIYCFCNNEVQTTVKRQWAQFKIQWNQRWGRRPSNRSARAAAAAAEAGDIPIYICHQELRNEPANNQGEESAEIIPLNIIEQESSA
T1 sequence (O60896 24-148 partner): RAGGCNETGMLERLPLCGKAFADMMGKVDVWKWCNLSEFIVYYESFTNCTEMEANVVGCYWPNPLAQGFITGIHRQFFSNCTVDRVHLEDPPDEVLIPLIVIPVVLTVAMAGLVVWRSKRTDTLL
Assay: Luciferase assay of amylin derivatives in amylin receptor/CRE-luc CHO cell line
Format: cell-based
Conditions: CHO-K1/Ga15/AMY3 CRE-luc cells, 24 hours incubation, F12 medium containing 10% FBS; read-out: EC50
Method: The experiment was intended to detect the activity or efficacy of the amylin derivatives on a human amylin receptor in vitro by luciferase assay.
50 μL of growth medium (F12 medium containing 10% FBS) was added into each well of a white 96-well plate, and the stably transfected amylin/CRE-lue CHO cells were inoculated into the white 96-well plate at a density of about 20,000 cells/well for activity determination.

SMILES | EC50 [nM]
CC[C@H](C)[C@H](NC(=O)[C@@H]1CCCN1C(=O)CNC(=O)[C@H](CC(C)C)NC(=O)[C@H](CC(N)=O)NC(=O)[C@H](CC(N)=O)NC(=O)[C@H](CCCCNC(=O)COCCOCCNC(=O)COCCOCCNC(=O)CC[C@H](NC(=O)CCCCCCCCCCCCCCCCCCC(=O)O)C(=O)O)NC(=O)[C@H](CO)NC(=O)[C@H](Cc1c[nH]cn1)NC(=O)[C@H](CCCNC(=N)N)NC(=O)[C@H](CC(C)C)NC(=O)[C@H](Cc1ccccc1)NC(=O)[C@H](CC(=O)O)NC(=O)[C@H](C)NC(=O)[C@H](CC(C)C)NC(=O)[C@H](CCCNC(=N)N)NC(=O)[C@H](CCC(N)=O)NC(=O)[C@@H](NC(=O)[C@H](C)NC(=O)[C@@H]1CSSC[C@H](NC(=O)[C@@H](N)CCCNC(=N)N)C(=O)N[C@@H](CC(N)=O)C(=O)N[C@@H]([C@@H](C)O)C(=O)N[C@@H](C)C(=O)N[C@@H]([C@@H](C)O)C(=O)N1)[C@@H](C)O)C(=O)N[C@@H](CC(C)C)C(=O)N1CCC[C@H]1C(=O)N1CCC[C@H]1C(=O)N[C@H](C(=O)N[C@@H](CC(N)=O)C(=O)N[C@H](C(=O)NCC(=O)N[C@@H](CO)C(=O)N[C@@H](CC(N)=O)C(=O)N[C@H](C(=O)N1C[C@H](O)C[C@H]1C(N)=O)[C@@H](C)O)C(C)C)[C@@H](C)O [PD095] (H-RCNTATCATQRLADFLRHSK([AEEA-AEEA-γGlu-C20 diacid])NNLGPILPPTNVGSNT[Hyp]-NH2; disulfide 2-7) | 0.047
CC[C@H](C)[C@H](NC(=O)[C@@H]1CCCN1C(=O)CNC(=O)[C@H](CC(C)C)NC(=O)[C@H](CC(N)=O)NC(=O)[C@H](CC(N)=O)NC(=O)[C@H](CCCCNC(=O)CC[C@H](NC(=O)CCCCCCCCCCCCCCCCC(=O)O)C(=O)O)NC(=O)[C@H](CO)NC(=O)[C@H](Cc1c[nH]cn1)NC(=O)[C@H](CCCNC(=N)N)NC(=O)[C@H](CC(C)C)NC(=O)[C@H](Cc1ccccc1)NC(=O)[C@H](CC(=O)O)NC(=O)[C@H](C)NC(=O)[C@H](CC(C)C)NC(=O)[C@H](CCCNC(=N)N)NC(=O)[C@H](CCC(N)=O)NC(=O)[C@@H](NC(=O)[C@H](C)NC(=O)[C@@H]1CSSC[C@H](NC(=O)[C@@H](N)CCCNC(=N)N)C(=O)N[C@@H](CC(N)=O)C(=O)N[C@@H]([C@@H](C)O)C(=O)N[C@@H](C)C(=O)N[C@@H]([C@@H](C)O)C(=O)N1)[C@@H](C)O)C(=O)N[C@@H](CC(C)C)C(=O)N1CCC[C@H]1C(=O)N1CCC[C@H]1C(=O)N[C@H](C(=O)N[C@@H](CC(N)=O)C(=O)N[C@H](C(=O)NCC(=O)N[C@@H](CO)C(=O)N[C@@H](CC(N)=O)C(=O)N[C@H](C(=O)N1C[C@H](O)C[C@H]1C(N)=O)[C@@H](C)O)C(C)C)[C@@H](C)O [PD096] (H-RCNTATCATQRLADFLRHSK([γGlu-C18 diacid])NNLGPILPPTNVGSNT[Hyp]-NH2; disulfide 2-7) | 0.042
CC[C@H](C)[C@H](NC(=O)[C@@H]1CCCN1C(=O)CNC(=O)[C@H](CC(C)C)NC(=O)[C@H](CC(N)=O)NC(=O)[C@H](CC(N)=O)NC(=O)[C@H](CO)NC(=O)[C@H](CCCCNC(=O)CC[C@H](NC(=O)CCCCCCCCCCCCCCCCCCC(=O)O)C(=O)O)NC(=O)[C@H](Cc1c[nH]cn1)NC(=O)[C@H](CCCNC(=N)N)NC(=O)[C@H](CC(C)C)NC(=O)[C@H](Cc1ccccc1)NC(=O)[C@H](CC(=O)O)NC(=O)[C@H](C)NC(=O)[C@H](CC(C)C)NC(=O)[C@H](CCCNC(=N)N)NC(=O)[C@H](CCC(N)=O)NC(=O)[C@@H](NC(=O)[C@H](C)NC(=O)[C@@H]1CSSC[C@H](NC(=O)[C@@H](N)CCCNC(=N)N)C(=O)N[C@@H](CC(N)=O)C(=O)N[C@@H]([C@@H](C)O)C(=O)N[C@@H](C)C(=O)N[C@@H]([C@@H](C)O)C(=O)N1)[C@@H](C)O)C(=O)N[C@@H](CC(C)C)C(=O)N1CCC[C@H]1C(=O)N1CCC[C@H]1C(=O)N[C@H](C(=O)N[C@@H](CC(N)=O)C(=O)N[C@H](C(=O)NCC(=O)N[C@@H](CO)C(=O)N[C@@H](CC(N)=O)C(=O)N[C@H](C(=O)N1C[C@H](O)C[C@H]1C(N)=O)[C@@H](C)O)C(C)C)[C@@H](C)O [PD098] (H-RCNTATCATQRLADFLRHK([γGlu-C20 diacid])SNNLGPILPPTNVGSNT[Hyp]-NH2; disulfide 2-7) | 0.077
CC[C@H](C)[C@H](NC(=O)[C@@H]1CCCN1C(=O)CNC(=O)[C@H](CC(C)C)NC(=O)[C@H](CC(N)=O)NC(=O)[C@H](CC(N)=O)NC(=O)[C@H](CO)NC(=O)[C@H](CCCCNC(=O)COCCOCCNC(=O)COCCOCCNC(=O)CC[C@H](NC(=O)CCCCCCCCCCCCCCCCCCC(=O)O)C(=O)O)NC(=O)[C@H](Cc1c[nH]cn1)NC(=O)[C@H](CCCNC(=N)N)NC(=O)[C@H](CC(C)C)NC(=O)[C@H](Cc1ccccc1)NC(=O)[C@H](CC(=O)O)NC(=O)[C@H](C)NC(=O)[C@H](CC(C)C)NC(=O)[C@H](CCCNC(=N)N)NC(=O)[C@H](CCC(N)=O)NC(=O)[C@@H](NC(=O)[C@H](C)NC(=O)[C@@H]1CSSC[C@H](NC(=O)[C@@H](N)CCCNC(=N)N)C(=O)N[C@@H](CC(N)=O)C(=O)N[C@@H]([C@@H](C)O)C(=O)N[C@@H](C)C(=O)N[C@@H]([C@@H](C)O)C(=O)N1)[C@@H](C)O)C(=O)N[C@@H](CC(C)C)C(=O)N1CCC[C@H]1C(=O)N1CCC[C@H]1C(=O)N[C@H](C(=O)N[C@@H](CC(N)=O)C(=O)N[C@H](C(=O)NCC(=O)N[C@@H](CO)C(=O)N[C@@H](CC(N)=O)C(=O)N[C@H](C(=O)N1C[C@H](O)C[C@H]1C(N)=O)[C@@H](C)O)C(C)C)[C@@H](C)O [PD099] (H-RCNTATCATQRLADFLRHK([AEEA-AEEA-γGlu-C20 diacid])SNNLGPILPPTNVGSNT[Hyp]-NH2; disulfide 2-7) | 0.033

Stronger by EC50, values ahead:

EC50 [nM] | SMILES
0.03 | CC[C@H](C)[C@H](NC(=O)[C@@H]1CCCN1C(=O)CNC(=O)[C@H](CC(C)C)NC(=O)[C@H](CC(N)=O)NC(=O)[C@H](CCCCNC(=O)COCCOCCNC(=O)COCCOCCNC(=O)CC[C@H](NC(=O)CCCCCCCCCCCCCCCCCCC(=O)O)C(=O)O)NC(=O)[C@H](CO)NC(=O)[C@H](CO)NC(=O)[C@H](Cc1c[nH]cn1)NC(=O)[C@H](CCCNC(=N)N)NC(=O)[C@H](CC(C)C)NC(=O)[C@H](Cc1ccccc1)NC(=O)[C@H](CC(=O)O)NC(=O)[C@H](C)NC(=O)[C@H](CC(C)C)NC(=O)[C@H](CCCNC(=N)N)NC(=O)[C@H](CCC(N)=O)NC(=O)[C@@H](NC(=O)[C@H](C)NC(=O)[C@@H]1CSSC[C@H](NC(=O)[C@@H](N)CCCNC(=N)N)C(=O)N[C@@H](CC(N)=O)C(=O)N[C@@H]([C@@H](C)O)C(=O)N[C@@H](C)C(=O)N[C@@H]([C@@H](C)O)C(=O)N1)[C@@H](C)O)C(=O)N[C@@H](CC(C)C)C(=O)N1CCC[C@H]1C(=O)N1CCC[C@H]1C(=O)N[C@H](C(=O)N[C@@H](CC(N)=O)C(=O)N[C@H](C(=O)NCC(=O)N[C@@H](CO)C(=O)N[C@@H](CC(N)=O)C(=O)N[C@H](C(=O)N1C[C@H](O)C[C@H]1C(N)=O)[C@@H](C)O)C(C)C)[C@@H](C)O [PD091] (H-RCNTATCATQRLADFLRHSSK([AEEA-AEEA-γGlu-C20 diacid])NLGPILPPTNVGSNT[Hyp]-NH2; disulfide 2-7)
0.016 | CC[C@H](C)[C@H](NC(=O)[C@@H]1CCCN1C(=O)CNC(=O)[C@H](CC(C)C)NC(=O)[C@H](CC(N)=O)NC(=O)[C@H](CCCCNC(=O)CC[C@H](NC(=O)CCCCCCCCCCCCCCCCC(=O)O)C(=O)O)NC(=O)[C@H](CO)NC(=O)[C@H](CO)NC(=O)[C@H](Cc1c[nH]cn1)NC(=O)[C@H](CCCNC(=N)N)NC(=O)[C@H](CC(C)C)NC(=O)[C@H](Cc1ccccc1)NC(=O)[C@H](CC(=O)O)NC(=O)[C@H](C)NC(=O)[C@H](CC(C)C)NC(=O)[C@H](CCCNC(=N)N)NC(=O)[C@H](CCC(N)=O)NC(=O)[C@@H](NC(=O)[C@H](C)NC(=O)[C@@H]1CSSC[C@H](NC(=O)[C@@H](N)CCCNC(=N)N)C(=O)N[C@@H](CC(N)=O)C(=O)N[C@@H]([C@@H](C)O)C(=O)N[C@@H](C)C(=O)N[C@@H]([C@@H](C)O)C(=O)N1)[C@@H](C)O)C(=O)N[C@@H](CC(C)C)C(=O)N1CCC[C@H]1C(=O)N1CCC[C@H]1C(=O)N[C@H](C(=O)N[C@@H](CC(N)=O)C(=O)N[C@H](C(=O)NCC(=O)N[C@@H](CO)C(=O)N[C@@H](CC(N)=O)C(=O)N[C@H](C(=O)N1C[C@H](O)C[C@H]1C(N)=O)[C@@H](C)O)C(C)C)[C@@H](C)O [PD092] (H-RCNTATCATQRLADFLRHSSK([γGlu-C18 diacid])NLGPILPPTNVGSNT[Hyp]-NH2; disulfide 2-7)
0.014 | CC[C@H](C)[C@H](NC(=O)[C@@H]1CCCN1C(=O)CNC(=O)[C@H](CC(C)C)NC(=O)[C@H](CC(N)=O)NC(=O)[C@H](CC(N)=O)NC(=O)[C@H](CCCCNC(=O)COCCOCCNC(=O)COCCOCCNC(=O)CC[C@H](NC(=O)CCCCCCCCCCCCCCCCC(=O)O)C(=O)O)NC(=O)[C@H](CO)NC(=O)[C@H](Cc1c[nH]cn1)NC(=O)[C@H](CCCNC(=N)N)NC(=O)[C@H](CC(C)C)NC(=O)[C@H](Cc1ccccc1)NC(=O)[C@H](CC(=O)O)NC(=O)[C@H](C)NC(=O)[C@H](CC(C)C)NC(=O)[C@H](CCCNC(=N)N)NC(=O)[C@H](CCC(N)=O)NC(=O)[C@@H](NC(=O)[C@H](C)NC(=O)[C@@H]1CSSC[C@H](NC(=O)[C@@H](N)CCCNC(=N)N)C(=O)N[C@@H](CC(N)=O)C(=O)N[C@@H]([C@@H](C)O)C(=O)N[C@@H](C)C(=O)N[C@@H]([C@@H](C)O)C(=O)N1)[C@@H](C)O)C(=O)N[C@@H](CC(C)C)C(=O)N1CCC[C@H]1C(=O)N1CCC[C@H]1C(=O)N[C@H](C(=O)N[C@@H](CC(N)=O)C(=O)N[C@H](C(=O)NCC(=O)N[C@@H](CO)C(=O)N[C@@H](CC(N)=O)C(=O)N[C@H](C(=O)N1C[C@H](O)C[C@H]1C(N)=O)[C@@H](C)O)C(C)C)[C@@H](C)O [PD097] (H-RCNTATCATQRLADFLRHSK([AEEA-AEEA-γGlu-C18 diacid])NNLGPILPPTNVGSNT[Hyp]-NH2; disulfide 2-7)
